One data set deals with TICA0053 Fab. Briefly: HTRF competition binding selectivity assay, TICA0053 His-Fab. Also noted: species or system human. The note with it: first series (Table 2), not DMSO normalised; read-out: IC50 (uM) for inhibition of biotinylated ticagrelor binding to TICA0053 his-Fab. As to the method: Total Binding control wells were set up which contained all of the assay components above except that 5 ul assay buffer was added in place of the test selectivity compound addition. Negative Binding control wells were set up which contained all of the assay components included in the Total Binding control wells except that 5ul assay buffer was added in place of the His-Fab addition. Test compound serial titrations were either ½ or ⅓ depending on the particular experiment and top final assay compound concentrations were optimized on a compound specific basis. The concentration of biotinylated ticagrelor and His-Fab was optimized on a Fab specific basis in separate experiments. For the four Fabs investigated at the end of the lead isolation phase (TICA0010, TICA0049, TICA0053 and TICA0072) the final assay reagent concentrations used are set out in Table 1 below:
For the two Fabs investigated at the end of the lead optimization phase (TICA0162 and TICA0212) the final assay reagent concentrations used were 5nM biotinylated ticagrelor and 1 nM His Fab in both cases. […] In order to enable subsequent normalization of data to correct for any such vehicle related effects parallel titrations of DMSO alone were included in most experiments in which the final assay DMSO concentrations mirrored those of the test compound serial dilutions. At the end of the set up procedure that assay was incubated for 3hrs at RT before being read on an Envision plate reader using a standard read protocol.
The negative ratio value used in the calculation of % Delta F was derived from the Negative Binding control wells. % Delta F values were then used to calculate % Specific Binding values according to the equation below: Specific Binding (%)={(Sample Delta F−Negative Binding Delta F)/(Total Binding Delta F−Negative Binding Delta F)}×100
For standard calculations of % Specific Binding Total Binding Delta F was taken from Total Binding control wells which contained all of the aforementioned components of the assay but without inclusion of any competing test compound.
In those experiments where DMSO normalization was applied DMSO normalised % Specific Binding was calculated essentially according to the equation above except that in this case Total Binding Delta F was taken from wells containing all of the components in the Total Binding control wells as well as DMSO at a concentration equivalent to that in the relevant sample well.
(TR-FRET usually uses a lanthanide donor and a delayed reading to cut background.)

The subject of data set [1] is ADP-induced platelet aggregation in whole blood. Briefly: Ex vivo whole blood impedance aggregometry after i.v. dosing of ticagrelor treated mice. It counts as in vivo. The conditions noted are these: for mean ADP-induced aggregation response: n=4. As to the method: The speed of onset and the extent of TICA0212/MEDI2452 mediated reversal of ticagrelor mediated inhibition of ADP-induced platelet aggregation in whole blood (impedance aggregometry) was determined ex vivo after intravenous (i.v.) dosing of ticagrelor in mice. Mice were given ticagrelor i.v. as a bolus of 1200 μg/kg. over 5 minutes, followed by a 15 min continuous infusion of 30 μg/kg/min. After termination of the ticagrelor infusion, when ticagrelor plasma exposure was measured to be in average 1.4 μM, mice were given an i.v. bolus of 250 mg/kg TICA0212/MEDI2452. At 5, 30, and 60 min post TICA0212/MEDI2452 administration mice were sacrificed and blood samples were collected. In this study the ADP-induced aggregation response was measured for 6 min and data expressed as the mean area under the curve of aggregation unit (AU) recorded over time (AU*min).
In carrying out the impedance aggregometry assay, mice were sacrificed and blood samples were collected into 7 μM hirudin. Blood (175 μL) was added to pre-heated […] (37° C., 175 μL) in the Multiplate mini test cells and mixed for 3 min before addition of ADP, 12 μL, to a final concentration of 6.5 μM. The disposable Multiplate mini test cells contain a stir bar and have two separate pair of electrodes that are immersed into the blood sample.
When agonist (ADP) is added and shear is induced by stirring, platelets will start to adhere and aggregate onto the electrodes.
(§1) Mice were pre-treated with a continuous infusion of ticagrelor, 300 μg/kg/min or vehicle for 20 minutes. After stop of infusion, t=0, a bolus dose of TICA0212/MEDI2452 (600 mg/kg) or vehicle (histidine sucrose buffer) was given over 45 seconds and at t=30 minutes bleeding was induced by cutting 5mm from the tip of the tail. The tip of the tail was rinsed with water (2 mL/min) and the blood and water mixture was collected in a small chamber, where a stirrer mixed the fluid to enhance haemolysis and establish a homogeneous solution. Light transmission, at 525 nm, was recorded for 30 minutes when terminal blood samples were collected from the abdominal aorta for platelet aggregation. Light transmittance was transformed to absorbance and used to calculate blood loss as area under the absorbance curve (AUC, absorbance*s) and total bleeding time (BT, s) by plotting absorbance over time. All transmittance below 95% was defined as bleeding. Samples for platelet aggregation and total and free plasma exposure were also collected at end of ticagrelor infusion (t=0) and at time of tail cut (t=30 minutes).

The next data set has as its system mouse tail bleeding. Briefly: Prophylactic mouse tail bleeding study. It counts as in vivo, mice. As to the method:
as §1
Studies were approved by the ethical committee for animal research at the University of Göteborg, Sweden. Mice were anaesthetised with isofluran gas (Forenc®, Abbot Scandinavia AB, Sweden). A catheter was inserted in the left jugular vein for administration of vehicle or drug. The body temperature was maintained at 38° C. by external heating.
To translate the effect of TICA0212/MED12452 on platelet aggregation to a potential effect on bleeding, a prophylactic mouse tail bleeding study was performed. Ticagrelor was infused to a mean total ticagrelor and TAM plasma concentration of 7.6 and 0.3 μM, respectively, to provide a significant drug-dependant bleeding window. Immediately after stopping the ticagrelor infusion TICA0212/MEDI2452 was dosed as a single bolus of 600 mg/kg over 30 seconds. […] Bleeding was initiated by a tail cut and monitored for 30 minutes. In vehicle treated mice the mean total ticagrelor and TAM plasma concentration at time of tail cut were 2.4 and 0.6 μM. […] In this prophylactic setting TICA0212/MED12452 normalized ticagrelor dependent bleeding.

The conditions of data set [2]: human, in vivo; cited from earlier work.
The mark [3] stands for this setting: 5 min after ticagrelor infusion (1200 μg/kg bolus + 30 μg/kg/min) and bolus (PBS or 250 mg/kg Fab i.v.).
[4] abbreviates: 30 min after ticagrelor infusion (1200 μg/kg bolus + 30 μg/kg/min) and bolus (PBS or 250 mg/kg Fab i.v.).
Where [5] appears, read: 60 min after ticagrelor infusion (1200 μg/kg bolus + 30 μg/kg/min) and bolus (PBS or 250 mg/kg Fab i.v.).
The mark [6] stands for this setting: ticagrelor versus vehicle, p<0.05.
Where [7] appears, read: 600 mg/kg bolus 30 min before tail cut, n=12.

Consider `CCCSc1nc(N[C@@H]2C[C@H]2c2ccc(F)c(F)c2)c2nnn([C@@H]3C[C@H](OCCO)[C@@H](O)[C@H]3O)c2n1` [Ticagrelor, (1S,2S,3R,5S)-3-[7-{[(1R,2S)-2-(3,4-difluorophenyl)cyclopropyl]amino}-5-(propylthio)-3H-[1,2,3]triazolo[4,5-d]pyrimidin-3-yl]-5-(2-hydroxyethoxy)cyclopentane-1,2-diol], for which, at TICA0053 Fab, the IC50 (commonly the concentration at which inhibition is half-maximal) stood at 0.109 µM. For the same molecule, the figures for the “mean ADP-induced aggregation response” value in data set [1] (setting [3]), in data set [1] (setting [4]) and in data set [1] (setting [5]) were 2 AU*min, 6 AU*min and 14 AU*min, respectively. For the same molecule, the “bleeding time over 30 minutes, enhancement” value in the data set with mouse tail bleeding (setting [6]) was approximately 1.6 fold. Further, the “total blood loss over 30 minutes, enhancement” value in the data set on mouse tail bleeding (setting [6]) is given as “about 3.8 fold”. Also, the circulating half-life in data set [2] was 8 h.

B1: TICA0212: combination of TICA0162 and TICA0152; VH SEQ ID NO:72, VL SEQ ID NO:77 (antibody, listed as Homo sapiens, V domains shown)
VH: QVQLQESGAEVKKPGSSVRVSCKASGGTFDSYSIHWVRQAPGQGLEWMGGIIPAFGTLSSAQDFQARVTISADKSTSTAYMELSGLRSEDTAVYYCARGSFDYYFWSASHPPNDALAIWGQGTLVTVSS
VL: QSVVTQPPSVSAAPGQKVTISCSGSNSDIGNNYVSWYQQLPGTAPKLLIYDNNKRPSGIPDRFSGSKSGTSATLAITGLQAGDEADYYCGTWLYDRAVGLFGGGTKVTVL
Regarding B1, the “mean ADP-induced aggregation response” value was 147 AU*min in data set [1] (setting [3]), 448 AU*min in data set [1] (setting [4]) and 413 AU*min in data set [1] (setting [5]). Moreover, the ADP-induced aggregation entry in data set [1] (Example 12, 30 minutes after single bolus of 600 mg/kg, ticagrelor 300 μg/kg/min for 20 min) is reported as “fully normalized”. Also, in the data set with mouse tail bleeding (setting [7]), the “bleeding time relative ticagrelor alone” value is “significantly (p<0.05) reversed”. In addition, the “blood loss relative ticagrelor alone” value with mouse tail bleeding (setting [7]) is given as “significantly (p<0.05) reversed”.

The values are drawn from US12391768B2, “Antibodies to ticagrelor and methods of use” (MEDIMMUNE LIMITED, priority 2014, dated 2025).
